Reference: patent publication US20030157553A1, “Methods of assaying for G protein-coupled receptor ligands and modulators” (priority 2000, published 2003)

Columns and labels:
[1] = tested on: β2AR; experiment: Direct binding assay of in vitro translated tritiated arrestins to purified β2AR reconstituted into phospholipid vesicles; details: activated by 0.1 mM agonist isoproterenol, FIG. 1A; for binding to activated unphosphorylated receptor: unphosphorylated β2AR
From the text: Mutagenesis and Biochemical Characterization of β-Arrestins—Mutations Arg169→Glu (CGG→GAG), Gln394→Ter (CAA→TAA), and Asp383→Ter (GAT→TAG) were introduced by polymerase chain reaction in β-arrestin construct pBARR (Gurevich et al. (1995) J. Biol. Chem. 270:720-731), that was used for in vitro transcription and translation, as described (Gurevich et al. (1995), supra). NcoI/HindIII 1404-base pair open reading frame was then subdloned into appropriately digested Escherichia coliexpression vector pTrcHisB (Invitrogen). All β-arrestin species were expressed in the in vitro translation system and tested in the direct binding assay (Gurevich et al. (1995), supra), overexpressed in E. coli, purified to apparent homogeneity (Gray-Keller et al. (1997) Biochemistry 36:7058-7063), and characterized in the agonist affinity shift assay (Gurevich et al. (1997) J. Biol Chem. 272:28849-28852), essentially as described.
Direct Binding Assay—In vitro translated tritiated arrestins (50 fmol) were incubated in 50 mM Tris-HCl, pH 7.5, 0.5 mM MgCl2, 1.5 mM dithiothreitol, 50 mM potassium acetate with 7.5 pmol of the various functional forms of rhodopsin or with P-β2AR or β2AR (100 fmol/assay) in a final volume of 50 μl for 5 min at 37° C. in room light (rhodopsin) or for 60 min at 30° C. in the presence of 0.1 mM -agonist isoproterenol. The samples were immediately cooled on ice and loaded onto 2 ml Sepharose 2B columns equilibrated with 20 mM Tris-HCl, pH 7.5, 2 mM EDTA. Bound arrestin eluted with receptor-containing membranes in the void volume (between 0.5 and 1.1 ml). Nonspecific binding determined in the presence of 0.3 μg of liposomes was subtracted.

[2] = tested on: β2AR; experiment: Agonist affinity shift assay ([125I] iodopindolol), formation of high agonist affinity complex (HAC); type: binding; details: 1 μM arrestin, FIG. 2A
From the text: Mutagenesis and Biochemical Characterization of β-Arrestins—Mutations Arg169→Glu (CGG→GAG), Gln394→Ter (CAA→TAA), and Asp383→Ter (GAT→TAG) were introduced by polymerase chain reaction in β-arrestin construct pBARR (Gurevich et al. (1995) J. Biol. Chem. 270:720-731), that was used for in vitro transcription and translation, as described (Gurevich et al. (1995), supra). NcoI/HindIII 1404-base pair open reading frame was then subdloned into appropriately digested Escherichia coliexpression vector pTrcHisB (Invitrogen). […]
Agonist Affinity ShiftAssay—P-β2AR or β2AR (10-15 fmol/assay) was incubated in 0.25 ml of 10 mM Tris-HCl, pH 7.4, 100 mM NaCl (buffer A) containing 0.1 mg/ml bovine serum albumin in the presence of 65-75 fmol of [^125I] iodopindolol (NEN Life Science Products) and the indicated concentrations of arrestins and agonists for 60 min at 22° C. […] Receptor-containing liposomes with bound radioligand were eluted with buffer A (between 0.6 and 1.5 ml), and radioactivity was quantitated in a liquid scintillation counter. Nonspecific binding was determined in the presence of 10 μM alprenolol. […]

Substance | binding to activated unphosphorylated receptor [1] | percentage of HAC formed by unphosphorylated β2AR [2] [%] | binding to activated and phosphorylated β2AR ([1]; phosphorylated β2AR (P-β2AR))
β-arrestin-(1-382): bovine β-arrestin mutant Asp383→Ter, truncated regulatory COOH terminus | significantly higher binding | 22±4 | 
β-arrestin-(1-393): bovine β-arrestin mutant Gln394→Ter, part of the regulatory COOH terminus deleted | bind poorly |  | 
β-arrestin: wild type bovine β-arrestin, comparator for the mutants | bind poorly |  | readily bind
